Earlier results, collected in US20090026122A1, “BIOCOMPATIBLE SOLID-PHASE MICROEXTRACTION COATINGS AND METHODS FOR THEIR PREPARATION” (Janusz, priority 2002, published 2009).

System: plasma proteins
Settings: previously published values

Q: With `CN(C)C(=O)C(CCN1CCC(O)(c2ccc(Cl)cc2)CC1)(c1ccccc1)c1ccccc1` [Loperamide, loperamide] as the molecule, how does the “Plasma Protein Binding % Literature Values (range)” value read?
A: 95-97%
